Where two headings read alike, the source gives them in different places.
Assays:
[1] = system: circulating microfilariae (Dirofilaria immitis); assay: Heartworm Positive Dog Studies (effects on circulating microfilariae, clinical observations); conditions: for Mean MF/mL, Day 0 Pre-dose / Mean MF/mL, Day 0 Post-dose, 2 hours / Mean MF/mL, Day 1 / Mean MF/mL, Day 7 / Mean MF/mL, Day 14 / Mean MF/mL, Day 21: blood, 3 dogs/treatment; for Mean MF/mL, Day 0 Pre-dose: baseline before oral dose; for Mean MF/mL, Day 0 Post-dose, 2 hours / Mean MF/mL, Day 1 / Mean MF/mL, Day 7 / Mean MF/mL, Day 14 / Mean MF/mL, Day 21: oral dose (emodepside and 1b-14 1 mg/kg, 1b-25 up to 3 mg/kg); for Mean MF/mL, Day 0 Post-dose, 2 hours / % Reduction of circulating microfilariae, Day 0 Post-dose, 2 hours: 2 hours post-dose; for % Reduction of circulating microfilariae, Day 0 Post-dose, 2 hours / % Reduction of circulating microfilariae, Day 1 / % Reduction of circulating microfilariae, Day 7 / % Reduction of circulating microfilariae, Day 14 / % Reduction of circulating microfilariae, Day 21: vs pre-dose (Day 0) counts, oral dose
[2] = system: microfilariae of Dirofilaria immitis; assay: Dirofilaria immitis, Microfilaria (DiMF) In vitro Assay; type: cell-based; conditions: 72 h, read-out: DiMF Minimum Effective Dose (MED), approximately 72 hours incubation, microfilariae assessed for survival or paralysis
[3] = Canine pharmacokinetic (PK) study, single IV or oral dose; conditions: dog; for Vd / clearance / half-life / Cmax: in vivo; for Vd / clearance / half-life: iv, 0.2 mg/kg; for Cmax: po, 1 mg/kg; for F: oral 1 mg/kg
[4] = system: 4th stage larvae (L4) of Dirofilaria immitis; assay: Dirofilaria immitis, L4 Stage (DiL4) In Vitro Assay; type: cell-based
[5] = system: third stage larvae of Haemonchus contortus; assay: Haemonchus contortus L3 (HcL3) Assay; type: cell-based; conditions: 96 h, read-out: HcL3 Minimum Effective Dose (MED)
[6] = system: circulating microfilariae (Dirofilaria immitis); conditions: dog, in vivo, po, 1 mg/kg

SMILES	Mean MF/mL, Day 0 Pre-dose ([1]; heartworm positive dogs)	Mean MF/mL, Day 0 Post-dose, 2 hours ([1]; heartworm positive dogs)	Mean MF/mL, Day 1 ([1]; heartworm positive dogs)	Mean MF/mL, Day 7 ([1]; heartworm positive dogs)	Mean MF/mL, Day 14 ([1]; heartworm positive dogs)	Mean MF/mL, Day 21 ([1]; heartworm positive dogs)	% Reduction of circulating microfilariae, Day 0 Post-dose, 2 hours [1] [%]	% Reduction of circulating microfilariae, Day 1 [1] [%]	% Reduction of circulating microfilariae, Day 7 [1] [%]	% Reduction of circulating microfilariae, Day 14 [1] [%]	% Reduction of circulating microfilariae, Day 21 [1] [%]	minimal effective concentration [2] [µM]	Vd [3] [L/kg]	clearance [3] [mL/min/kg]	half-life [3] [h]	Cmax [3] [ng/mL]	F [3] [%]	other results
CC(C)C[C@H]1C(=O)O[C@H](Cc2ccc(Cn3nc(C4CC4)cc3C3CC3)cc2)C(=O)N(C)[C@@H](CC(C)C)C(=O)O[C@H](C)C(=O)N(C)[C@@H](CC(C)C)C(=O)O[C@H](Cc2ccc(Cn3nc(C4CC4)cc3C3CC3)cc2)C(=O)N(C)[C@@H](CC(C)C)C(=O)O[C@H](C)C(=O)N1C [Example 1b-14, (3S,6R,9S,12R,15S,18R,21S,24R)-6,18-bis({4-[(3,5-dicyclopropyl-1H-pyrazol-1-yl)methyl]phenyl}methyl)-4,10,12,16,22,24-hexamethyl-3,9,15,21-tetrakis(2-methylpropyl)-1,7,13,19-tetraoxa-4,10,16,22-tetraazacyclotetracosan-2,5,8,11,14,17,20,23-octaone]	15,000 MF/mL	20,000 MF/mL	14,000 MF/mL	15,000 MF/mL	33,000 MF/mL	28,000 MF/mL	−33	7	0	−120	−87	0.3	2.7	0.9	138	111	10	adverse effects / clinical observations ([1]; heartworm positive dogs, 1 mg/kg (po)): no adverse clinical observations noted; average MF counts on day 21 ([1]; heartworm positive dogs, 1 mg/kg (po), 15,000 MF/mL of blood pre-dose): 28,000 MF/mL of blood; effects on circulating MF counts ([1]; heartworm positive dogs, 1 mg/kg (po), throughout the dog study): no significant effects on circulating MF counts
CC(C)C[C@H]1C(=O)O[C@H](Cc2ccc(Cn3cc(Br)cn3)cc2)C(=O)N(C)[C@@H](CC(C)C)C(=O)O[C@H](C)C(=O)N(C)[C@@H](CC(C)C)C(=O)O[C@H](Cc2ccc(Cn3cc(Br)cn3)cc2)C(=O)N(C)[C@@H](CC(C)C)C(=O)O[C@H](C)C(=O)N1C [Example 1b-25, (3S,6R,9S,12R,15S,18R,21S,24R)-6,18-bis[[4-[(4-bromopyrazol-1-yl)methyl]phenyl]methyl]-3,9,15,21-tetraisobutyl-4,10,12,16,22,24-hexamethyl-1,7,13,19-tetraoxa-4,10,16,22-tetrazacyclotetracosane-2,5,8,11,14,17,20,23-octaone]	32,000 MF/mL	34,000 MF/mL	26,000 MF/mL	27,000 MF/mL	40,000 MF/mL	46,000 MF/mL	−6	19	16	−25	−44		3	2	110	152	12	selectivity ratio (DiMF/DiL4) ([4]; ratio of DiMF MED to DiL4 MED): about 8.3; adverse effects / clinical observations ([1]; heartworm positive dogs, dosed up to 3 mg/kg (po)): no adverse effects observed; effects on circulating MF counts ([1]; heartworm positive dogs, dosed up to 3 mg/kg (po), out to day 21 post-dose): no significant effects on circulating MF counts; minimal effective concentration [5]: 10 to 100 µM
CC(C)C[C@H]1C(=O)O[C@H](Cc2ccc(N3CCOCC3)cc2)C(=O)N(C)[C@@H](CC(C)C)C(=O)O[C@H](C)C(=O)N(C)[C@@H](CC(C)C)C(=O)O[C@H](Cc2ccc(N3CCOCC3)cc2)C(=O)N(C)[C@@H](CC(C)C)C(=O)O[C@H](C)C(=O)N1C [emodepside, reference compound]	61,000 MF/mL	8,300 MF/mL	4,500 MF/mL	8,800 MF/mL	13,000 MF/mL	13,000 MF/mL	86	93	86	79	79	0.03						minimal effective concentration ([4]; Dirofilaria immitis, 72 h, read-out: DiL4 Minimum Effective Dose (MED), approximately 72 hours incubation, L4 larvae assessed for survival or paralysis): 0.03 µM; average MF counts at 2 hours post-dose ([1]; heartworm positive dogs, 1 mg/kg (po), 61,000 MF/mL of blood pre-dose): 8,300 MF/mL of blood; decrease of average MF counts at 2 hours post-dose ([1]; heartworm positive dogs, 1 mg/kg (po), versus pre-dose): ~86%; adverse effects / clinical observations [6]: all treated dogs exhibited adverse effects consistent with dead or dying circulating microfilariae

Source: patent publication US11331369B2, “Endoparasitic depsipeptides” (Zoetis Services LLC, priority 2017, dated 2022)
